Each structure is given as a SMILES string.

What all share (type): biochemical
One experiment concerns the target T1, human NTPDase8 (Homo sapiens, UniProt Q5MY95).
T1 construct: expressed in transfected cells; host or cells: COS-7 cells (membrane preparation)
T1 sequence (Q5MY95 1-495): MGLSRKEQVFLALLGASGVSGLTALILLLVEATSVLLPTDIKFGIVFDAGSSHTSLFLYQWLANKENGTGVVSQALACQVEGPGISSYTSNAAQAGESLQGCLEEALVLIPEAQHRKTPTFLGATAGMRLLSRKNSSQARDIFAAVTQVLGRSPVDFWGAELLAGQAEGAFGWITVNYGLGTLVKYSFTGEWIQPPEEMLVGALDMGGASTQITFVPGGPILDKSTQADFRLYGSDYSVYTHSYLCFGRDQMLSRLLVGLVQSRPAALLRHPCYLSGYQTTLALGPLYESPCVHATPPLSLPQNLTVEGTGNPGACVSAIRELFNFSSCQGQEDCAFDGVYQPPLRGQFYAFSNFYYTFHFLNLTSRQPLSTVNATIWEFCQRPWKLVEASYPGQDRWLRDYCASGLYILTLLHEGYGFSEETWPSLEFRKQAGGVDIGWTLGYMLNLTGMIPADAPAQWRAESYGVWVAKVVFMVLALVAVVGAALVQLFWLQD
Put plainly: Malachite green assay, human NTPDase8. To be noted: for inhibition at 2 µM: read-out: % inhibition at 2 μM concentration, NTPDase8. The method, then: (§1) Membrane preparations expressing human NTPDase1, -2, -3, or -8, respectively, were obtained as previously described ([Sévigny et al., 1997]; [Cogan et al., 1999]; [Kukulski et al., 2005]; [Lecka et al., 2013]; [Lee et al., 2018]). Enzyme inhibition assays were performed using the malachite green assay in analogy to published procedures with some modifications ([Dou et al., 2018]). The reaction buffer contained 10 mM HEPES, 2 mM CaCl2, and 1 mM MgCl2 (pH 7.4) in a final volume of 50 μL in transparent 96-well half-area plates. The compounds were initially tested at a final concentration of 2 µM using a COS-7-cell membrane preparation expressing the appropriate NTPDase isoenzyme (protein amount: 143 ng for NTPDase1, 175 ng for NTPDase2, 152 ng for NTPDase3, and 175 ng for NTPDase8). Preincubated of the enzyme preparations was perfomred at 37°C in the presence or absence of test compounds with gentle shaking (Eppendorf Thermomixer comfort at 500 rpm) for 5 min. […] ([Kukulski et al., 2005]). After 15 min of incubation at 37°C with gentle shaking, the reaction was stopped by the addition of the detection reagents (20 µL malachite green solution, 0.6 mM, and 30 µL of ammonium molybdate solution, 20 mM, in 1.5 M sulfuric acid). The released inorganic phosphate was quantified after 20 min of gentle shaking at 25°C by measuring the absorption of the malachite green-phosphomolybdate complex at 600 nm using a BMG PheraStar FS plate reader (BMG Labtech GmbH, Ortenberg, Germany). The corrected absorption was calculated by subtracting the absorption of the negative control samples, which were incubated with previously denatured enzyme (90°C, 15 min). Full concentration-inhibition curves were determined with inhibitor concentrations ranging from 0.03 to 30 µM in the presence of 2% DMSO. Inhibition-type experiments were performed with 25, 50, 100, 150 and 200 µM ATP as substrate for NTPDase2 in the presence of inhibitor 20 (0, 0.25, 0.5, and 1 µM) and 25, 50, 100 and 150 µM ATP substrate for NTPDase3 and compound 42 (0.25, 0.5, and 1 µM). For all of the presented data, at least three independent experiments were performed, and IC50 values were calculated by GraphPad Prism 8 software.
(§2) Inhibition of human NTPDases was performed using the malachite green assay, which was established on a robotic system (Z’ factors > 0.70) ([Baykov et al., 1988]; [Fiene et al., 2015]). The malachite green assay enables the detection of the phosphate produced by the enzymatic hydrolysis of nucleotides. A fixed substrate concentration of 50 µM ATP for NTPDase1 and 100 µM for NTPDase2, -3, and -8 was employed. Test compounds were initially screened at a concentration of 2 μM. […] A total of 48 synthesized anthraquinone derivatives including 14 new compounds not previously described in the literature were evaluated for their inhibitory activity at human NTPDase1, -2, -3, and -8 (for results see Table 1).

For another experiment, the target named is T2, human NTPDase1 (Homo sapiens, UniProt P49961).
T2 construct: expressed in transfected cells; host or cells: COS-7 cells (membrane preparation)
T2 sequence (P49961 1-510): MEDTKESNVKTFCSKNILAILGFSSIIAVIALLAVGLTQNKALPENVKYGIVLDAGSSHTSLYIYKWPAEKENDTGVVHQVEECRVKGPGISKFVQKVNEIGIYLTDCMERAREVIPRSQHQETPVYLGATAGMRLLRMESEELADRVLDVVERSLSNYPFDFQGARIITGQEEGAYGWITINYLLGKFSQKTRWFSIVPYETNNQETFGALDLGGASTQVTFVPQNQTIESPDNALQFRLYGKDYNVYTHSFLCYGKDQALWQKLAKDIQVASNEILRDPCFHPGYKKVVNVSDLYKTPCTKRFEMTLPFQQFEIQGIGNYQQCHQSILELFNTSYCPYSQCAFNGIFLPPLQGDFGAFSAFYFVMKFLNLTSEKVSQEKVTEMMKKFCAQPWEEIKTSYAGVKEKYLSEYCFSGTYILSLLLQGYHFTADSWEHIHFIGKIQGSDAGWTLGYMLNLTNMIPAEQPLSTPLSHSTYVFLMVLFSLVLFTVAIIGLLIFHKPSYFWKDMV
Put plainly: Malachite green assay, human NTPDase1. To be noted: 2 μM compound, 50 µM ATP, COS-7 membrane preparation; for inhibition at 2 µM: read-out: % inhibition at 2 μM concentration, NTPDase1. The method, then:
as §1, §2

The next experiment has as its target T3, human NTPDase3 (Homo sapiens, UniProt O75355).
T3 construct: expressed in transfected cells; host or cells: COS-7 cells (membrane preparation)
T3 sequence (O75355 1-529): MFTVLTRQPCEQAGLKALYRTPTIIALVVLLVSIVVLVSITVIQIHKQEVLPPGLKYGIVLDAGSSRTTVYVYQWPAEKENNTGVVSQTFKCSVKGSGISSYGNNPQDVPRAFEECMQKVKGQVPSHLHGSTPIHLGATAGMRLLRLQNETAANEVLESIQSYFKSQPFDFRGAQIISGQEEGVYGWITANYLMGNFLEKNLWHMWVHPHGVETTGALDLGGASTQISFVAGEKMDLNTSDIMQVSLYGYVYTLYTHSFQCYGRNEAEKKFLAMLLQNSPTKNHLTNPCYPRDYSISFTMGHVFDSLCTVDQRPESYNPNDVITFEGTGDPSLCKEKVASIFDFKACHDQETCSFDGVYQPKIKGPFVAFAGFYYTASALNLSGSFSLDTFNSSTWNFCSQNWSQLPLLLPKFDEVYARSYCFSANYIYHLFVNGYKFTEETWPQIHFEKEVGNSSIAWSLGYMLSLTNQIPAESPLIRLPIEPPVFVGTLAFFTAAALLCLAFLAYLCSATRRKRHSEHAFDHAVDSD
Put plainly: Malachite green assay, human NTPDase3. To be noted: 100 µM ATP, COS-7 membrane preparation; for inhibition at 2 µM: 2 μM compound, read-out: % inhibition at 2 μM concentration, NTPDase3; for IC50: read-out: IC50 ± SEM, NTPDase3. The method, then: as §1, §2

The next experiment deals with T4, human NTPDase2 (Homo sapiens, UniProt Q9Y5L3).
T4 construct: expressed in transfected cells; host or cells: COS-7 cells (membrane preparation)
T4 sequence (Q9Y5L3 1-495): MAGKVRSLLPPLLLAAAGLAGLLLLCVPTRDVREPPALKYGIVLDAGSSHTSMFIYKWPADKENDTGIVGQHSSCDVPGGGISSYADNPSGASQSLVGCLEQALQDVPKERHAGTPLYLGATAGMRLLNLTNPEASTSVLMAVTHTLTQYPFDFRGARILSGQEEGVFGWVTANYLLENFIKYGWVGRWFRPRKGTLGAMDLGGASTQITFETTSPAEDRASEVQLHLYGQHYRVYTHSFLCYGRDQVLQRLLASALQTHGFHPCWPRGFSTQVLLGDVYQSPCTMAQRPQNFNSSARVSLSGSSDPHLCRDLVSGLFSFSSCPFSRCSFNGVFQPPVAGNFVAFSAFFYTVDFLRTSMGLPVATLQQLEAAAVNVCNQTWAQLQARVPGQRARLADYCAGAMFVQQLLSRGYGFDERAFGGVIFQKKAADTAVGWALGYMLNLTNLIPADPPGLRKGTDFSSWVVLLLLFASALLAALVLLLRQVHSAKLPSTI
Put plainly: Malachite green assay, human NTPDase2. The following applies: 100 µM ATP, COS-7 membrane preparation; for IC50: read-out: IC50 ± SEM, NTPDase2; for inhibition at 2 µM: read-out: % inhibition at 2 μM concentration, NTPDase2. The method, then:
as §1, §2

The mark [1] stands for this setting: 2 μM compound, 100 µM ATP, COS-7 membrane preparation.

In the case of `Cc1cc(Cl)ccc1Nc1cc(S(=O)(=O)O)c(N)c2c1C(=O)c1ccccc1C2=O` [Compound 38], the inhibition at 2 µM is -1% on human NTPDase8 (setting [1]), 2% at human NTPDase1 and 9% at human NTPDase3. Besides, on human NTPDase2, the 50% inhibitory concentration (IC50) was 5450 ± 700 nM.

`CCc1cccc(Nc2cc(C)c(N)c3c2C(=O)c2ccccc2C3=O)c1` [Compound 56]: the inhibition at 2 µM on human NTPDase8 (setting [1]) is -3%; at human NTPDase1, -3%; on human NTPDase3 it was -1%; at human NTPDase2 (2 μM compound) it was 6%.

As for `O=C(O)c1cc(Nc2cc(S(=O)(=O)O)cc3c2C(=O)c2ccccc2C3=O)ccc1O` [Compound 58], the inhibition at 2 µM on human NTPDase8 (setting [1]) was 5%; at human NTPDase1 it was 1%; at human NTPDase3 it was 32%; on human NTPDase2 (2 μM compound), 5%.

In the case of `Nc1c(S(=O)(=O)O)cc(Nc2ccc(Nc3nc(Cl)nc(Nc4cccc(S(=O)(=O)O)c4)n3)c(S(=O)(=O)O)c2)c2c1C(=O)c1ccccc1C2=O` [Compound 5, reactive blue-2, reference compound], the “inhibitory activity at NTPDase8 (in words)” value against human NTPDase8 is “inactive”. Moreover, at human NTPDase8 (setting [1]), the “% inhibition at 2 μM concentration, NTPDase8” value is listed as “(-8) %”. Further, the “% inhibition at 2 μM concentration, NTPDase1” value at human NTPDase1 is listed as “(17) %”. Besides, on human NTPDase3, the half-maximal inhibitory concentration (IC50) amounted to 0.942 ± 0.024 µM. For the same molecule, the “% inhibition at 2 μM concentration, NTPDase2” value at human NTPDase2 (2 μM compound) is recorded as “(42) %”.

In the case of `Nc1c(S(=O)(=O)O)cc(Nc2ccc(Cc3ccccc3)cc2)c2c1C(=O)c1ccccc1C2=O` [Compound 43], the figures for the inhibition at 2 µM on human NTPDase8 (setting [1]), on human NTPDase1 and on human NTPDase3 were 3%, 7% and 3%, respectively. For the same molecule, the 50% inhibitory concentration (IC50) on human NTPDase2 stood at 1320 ± 50 nM.

Regarding `COc1cccc(Nc2cc(C)c(N)c3c2C(=O)c2ccccc2C3=O)c1` [Compound 55], the inhibition at 2 µM at human NTPDase8 (setting [1]) was -2%; at human NTPDase1, -6%; at human NTPDase3, 0%; at human NTPDase2 (2 μM compound) it was 3%.

For `Nc1c(S(=O)(=O)O)cc(Nc2cccc([N+](=O)[O-])c2)c2c1C(=O)c1ccccc1C2=O` [Compound 24], the inhibition at 2 µM is 3% on human NTPDase8 (setting [1]), -32% on human NTPDase1 and 19% at human NTPDase2 (2 μM compound). In addition, the IC50 on human NTPDase3 was found to be 15.3 ± 2.5 µM.

Consider `Cc1ccc(C)c(Sc2ccc(Nc3cc(S(=O)(=O)O)c(N)c4c3C(=O)c3ccccc3C4=O)cc2)c1` [Compound 50], for which the inhibition at 2 µM at human NTPDase8 (setting [1]) was determined as 17%; on human NTPDase1 it was 38%; at human NTPDase3, 34%. Also, at human NTPDase2, the half-inhibitory concentration (IC50) turned out to be 1130 ± 270 nM.

Consider `Nc1c(S(=O)(=O)O)cc(Nc2ccc(Cl)cc2C(=O)O)c2c1C(=O)c1ccccc1C2=O` [Compound 36], for which the inhibition at 2 µM on human NTPDase8 (setting [1]) is -17%; on human NTPDase1, -20%; on human NTPDase2 (2 μM compound), -2%. Besides, the half-inhibitory concentration (IC50) at human NTPDase3 came to 4.04 ± 0.47 µM.

As to `Nc1c(S(=O)(=O)O)cc(Nc2cccc(Cc3ccccc3)c2)c2c1C(=O)c1ccccc1C2=O` [Compound 39], the inhibition at 2 µM came to 28% at human NTPDase8 (setting [1]) and 36% on human NTPDase1. Besides, the IC50 came to 13.1 ± 1.65 µM at human NTPDase3 and 3590 ± 850 nM on human NTPDase2.

`Nc1c(S(=O)(=O)O)cc(Nc2ccc(Sc3ccccc3)c(Cl)c2)c2c1C(=O)c1ccccc1C2=O` [Compound 48, Sodium 1-amino-4-(3-chloro-4-phenylsulfanyl)-phenylamino-9,10-dioxo-9,10-dihydroanthracene-2-sulfonate]: the figures for the inhibition at 2 µM on human NTPDase8 (setting [1]), on human NTPDase1 and at human NTPDase3 were 14%, 29% and 20%, respectively. Also, the concentration for half-maximal inhibition (IC50) at human NTPDase2 turned out to be 551 ± 195 nM.

Take `Nc1c(S(=O)(=O)O)cc(Nc2ccc(Sc3ccccc3)cc2)c2c1C(=O)c1ccccc1C2=O` [Compound 44]: the inhibition at 2 µM was determined as 6% on human NTPDase8 (setting [1]), 15% on human NTPDase1 and 7% on human NTPDase3. Further, the 50% inhibitory concentration (IC50) on human NTPDase2 is 934 ± 136 nM.

Take `Nc1c(S(=O)(=O)O)cc(NCCc2ccccc2)c2c1C(=O)c1ccccc1C2=O` [Compound 13]: the inhibition at 2 µM at human NTPDase8 (setting [1]) was -3%; at human NTPDase1 it was -12%; at human NTPDase3, -3%; on human NTPDase2 (2 μM compound), 12%.

On to `Nc1ccc(Nc2cc(S(=O)(=O)O)c(N)c3c2C(=O)c2ccccc2C3=O)cc1` [Compound 25], for which the inhibition at 2 µM was -12% on human NTPDase8 (setting [1]), -19% on human NTPDase1, -25% at human NTPDase3 and 17% at human NTPDase2 (2 μM compound).

Usually IC50 stands for the point on the concentration scale where inhibition reaches its midpoint.
